# Assay: Solubility Evaluation 1: solubility of host compounds in toluene
# Assay type: physicochemical
# Conditions: host compounds
# Experimental: Solubility Evaluation 1 was conducted by the following method.
# (§1) A hundred mg of each compound was placed in a sample pot and the toluene as the solvent was added until the compound was dissolved. The solubility in the toluene was obtained from an amount of the added toluene.
solubility in toluene [wt %],Compound,solubility in the toluene (in words)
5,c1ccc(-c2ccccc2-c2ccc3c(-c4ccccc4)c4ccccc4c(-c4ccccc4)c3c2)cc1 [Compound H10],
,c1ccc(-c2ccc(-c3ccccc3-c3c4ccccc4c(-c4c5ccccc5c(-c5ccccc5-c5ccc(-c6ccccc6)cc5)c5ccccc45)c4ccccc34)cc2)cc1 [Compound H9],solubility capable of performing the thickness control of the films

# Same assay, conditions: in toluene; 100 mg compound, toluene added until dissolved
row,Compound,Solubility (%)
1,c1cc(-c2ccc(-c3cccc4ccccc34)cc2)cc(-c2c3ccccc3c(-c3ccc(-c4cccc5ccccc45)cc3)c3ccccc23)c1 [Compound H2],2.0
2,c1cc(-c2ccc3ccccc3c2)cc(-c2c3ccccc3c(-c3cccc4ccccc34)c3ccccc23)c1 [Compound H6],0.25
3,c1ccc2cc(-c3c4ccccc4c(-c4ccc(-c5cccc6ccccc56)cc4)c4ccccc34)ccc2c1 [Compound H4],5.0
4,c1ccc(-c2ccc(-c3c4ccccc4c(-c4ccccc4)c4ccccc34)cc2)cc1 [Compound H8],0.2
5,c1cc(-c2ccc3ccccc3c2)cc(-c2c3ccccc3c(-c3ccc4cc(-c5ccc6ccccc6c5)ccc4c3)c3ccccc23)c1 [Compound H7],0.25
6,c1ccc2cc(-c3ccc4cc(-c5c6ccccc6c(-c6ccc(-c7cccc8ccccc78)cc6)c6ccccc56)ccc4c3)ccc2c1 [Compound H3],2.0
7,c1ccc2cc(-c3ccc(-c4c5ccccc5c(-c5ccc(-c6cccc7ccccc67)cc5)c5ccccc45)cc3)ccc2c1 [Compound H1],2.0
8,c1ccc(-c2cc(-c3ccc4ccccc4c3)cc(-c3c4ccccc4c(-c4ccc5ccccc5c4)c4ccccc34)c2)cc1 [Compound H5],5.0
9,c1ccc(-c2ccc(-c3ccccc3-c3c4ccccc4c(-c4c5ccccc5c(-c5ccccc5-c5ccc(-c6ccccc6)cc5)c5ccccc45)c4ccccc34)cc2)cc1 [Compound H9],1.4

# Assay: Ink solubility, insoluble matter visually observed
# Assay type: physicochemical
# Conditions: H10: ink of Example 28 with Compound H10 instead of H4
# Experimental: (§2) Specifically, samples of a host compound and a dopant compound were blended in a weight ratio of 20:1 in a sample pot, to which a solvent and a viscosity control agent were added.
# (§3) Table 5 and Table 6 each show a type of solvent, solid content (wt %), solubility (o: no insoluble matter visually observed, x: insoluble matter visually observed), viscosity and a solution condition after a week.
row,insoluble matter in the ink (in words),Compound
1,no solid matters left undissolved,c1ccc(-c2ccccc2-c2ccc3c(-c4ccccc4)c4ccccc4c(-c4ccccc4)c3c2)cc1 [Compound H10]

# Assay: Solubility Evaluation 2: solubility of dopant compounds in toluene
# Assay type: physicochemical
# Conditions: Table 2
# Experimental: as §1
row,Solubility (%),Compound
1,0.5,Cc1ccc(N(c2ccc(C)cc2)c2c3ccc(C(C)(C)C)cc3c(N(c3ccc(C)cc3)c3ccc(C)cc3)c3ccc(C(C)(C)C)cc23)cc1 [EM143]
2,0.5,Cc1cccc(N(c2cccc(C)c2)c2c3ccc(C(C)C)cc3c(N(c3cccc(C)c3)c3cccc(C)c3)c3ccc(C(C)C)cc23)c1 [EM149]
3,0.5,CC(C)c1ccc2c(N(c3ccc(-c4ccccc4)cc3)c3ccc4ccccc4c3)c3cc(CC4CCCCC4)ccc3c(N(c3ccc(-c4ccccc4)cc3)c3ccc4ccccc4c3)c2c1 [EM136]
4,0.5,CC(C)(C)c1ccc2c(N(c3ccc4ccccc4c3)c3ccc4ccccc4c3)c3cc(C(C)(C)C)ccc3c(N(c3ccc4ccccc4c3)c3ccc4ccccc4c3)c2c1 [EM148]
5,0.5,Cc1cccc(N(c2cccc(C)c2)c2c3ccccc3c(N(c3cccc(C)c3)c3cccc(C)c3)c3cc(C4CC5CCC4C5)ccc23)c1 (centres unmarked) [EM175]
6,0.5,Cc1ccc(N(c2ccc(C)cc2)c2c3ccccc3c(N(c3ccc(C)cc3)c3ccc(C)cc3)c3cc(C(C)(C)C)ccc23)cc1 [EM139]
7,0.5,c1ccc(N(c2ccc3ccccc3c2)c2c3ccccc3c(N(c3ccccc3)c3ccc4ccccc4c3)c3cc(C4CCCCC4)ccc23)cc1 [EM174]
8,0.5,CC(C)c1ccc(N(c2ccccc2)c2c3ccccc3c(N(c3ccccc3)c3ccc(C(C)C)cc3)c3cc(C45CC6CC(CC(C6)C4)C5)ccc23)cc1 [EM177]
9,0.5,Cc1ccc(N(c2ccc(C(C)C)cc2)c2c3ccccc3c(N(c3ccc(C)cc3)c3ccc(C(C)C)cc3)c3cc(C(C)(C)C)ccc23)cc1 [EM141]
10,1,CCC(C)c1ccc(N(c2ccccc2)c2c3ccc(C(C)C)cc3c(N(c3ccccc3)c3ccc(C(C)CC)cc3)c3ccc(CC(C)(C)C)cc23)cc1 (centres unmarked) [EM137]
11,1,Cc1cccc(N(c2ccc(C)c(C)c2)c2c3ccc(C(C)(C)C)cc3c(N(c3cccc(C)c3)c3ccc(C)c(C)c3)c3ccc(C(C)(C)C)cc23)c1 [EM147]
12,0.5,CC(C)c1ccc(N(c2ccccc2)c2c3ccc(C(C)(C)C)cc3c(N(c3ccccc3)c3ccc(C(C)C)cc3)c3ccc(C(C)(C)C)cc23)cc1 [EM142]
13,0.5,Cc1ccc(N(c2ccc(C(C)(C)C)cc2)c2c3ccccc3c(N(c3ccc(C)cc3)c3ccc(C(C)(C)C)cc3)c3cc(C(C)C)ccc23)cc1 [EM140]
14,0.5,Cc1ccc(N(c2ccc(C(C)C)cc2)c2c3ccc(C(C)(C)C)cc3c(N(c3ccc(C)cc3)c3ccc(C(C)C)cc3)c3ccc(C(C)(C)C)cc23)cc1 [EM144]
15,0.5,Cc1ccc(N(c2ccc(C)c(C)c2)c2c3ccc(C(C)(C)C)cc3c(N(c3ccc(C)c(C)c3)c3ccc(C)c(C)c3)c3ccc(C(C)(C)C)cc23)cc1C [EM145]
16,0.5,Cc1cccc(N(c2cccc(C(C)C)c2)c2c3ccc(C(C)(C)C)cc3c(N(c3cccc(C)c3)c3cccc(C(C)C)c3)c3ccc(C(C)(C)C)cc23)c1 [EM146]
17,0.5,Cc1ccc(N(c2ccc(C)cc2)c2c3ccc(C4CCCCC4)cc3c(N(c3ccc(C)cc3)c3ccc(C)cc3)c3ccc(C(C)C)cc23)cc1 [EM138]
18,0.5,Cc1ccc(N(c2ccc(C(C)C)cc2)c2c3ccccc3c(N(c3ccc(C)cc3)c3ccc(C(C)C)cc3)c3cc(C45CC6CC(CC(C6)C4)C5)ccc23)cc1 [EM176]

# Same assay, conditions: Table 3
row,Compound,Solubility (%)
1,CC(C)c1ccc(N(c2ccc(C(C)(C)C)cc2)c2c3ccccc3c(N(c3ccc(C(C)C)cc3)c3ccc(C(C)(C)C)cc3)c3ccccc23)cc1 [EM205],0.5
2,CC(C)c1ccc(N(c2ccc(C(C)C)cc2)c2ccc3ccc4c(N(c5ccc(C(C)C)cc5)c5ccc(C(C)C)cc5)ccc5ccc2c3c54)cc1 [EM196],1
3,CCc1ccc(N(c2ccc(C(C)CC)cc2)c2c3ccccc3c(-c3c4ccccc4c(N(c4ccc(CC)cc4)c4ccc(C(C)CC)cc4)c4ccccc34)c3ccccc23)cc1 (centres unmarked) [EM206],0.5
4,CC(C)c1ccc(N(c2ccc(C(C)(C)C)cc2)c2ccc3ccc4c(N(c5ccc(C(C)C)cc5)c5ccc(C(C)(C)C)cc5)ccc5ccc2c3c54)cc1 [EM197],1
5,CC(C)c1ccc(N(c2cccc(-c3ccccc3)c2)c2c3ccccc3c(-c3c4ccccc4c(N(c4ccc(C(C)C)cc4)c4cccc(-c5ccccc5)c4)c4ccccc34)c3ccccc23)cc1 [EM207],0.5
6,CCC(C)c1ccc(N(c2ccc(-c3ccccc3)cc2)c2ccc(N(c3ccc(-c4ccccc4)cc3)c3ccc(C(C)CC)cc3)c3ccccc23)cc1 (centres unmarked) [EM191],1
7,Cc1ccc(N(c2ccc(C(C)C)cc2)c2cc3c4ccccc4c(N(c4ccc(C)cc4)c4ccc(C(C)C)cc4)cc3c3ccccc23)cc1 [EM213],0.5
8,Cc1ccc(N(c2ccc(C(C)C)cc2)c2c3ccccc3c(N(c3ccc(C)cc3)c3ccc(C(C)C)cc3)c3c2ccc2ccccc23)cc1 [EM210],1
9,CC(C)c1ccc(N(c2ccc3ccccc3c2)c2ccc3ccc4c(N(c5ccc(C(C)C)cc5)c5ccc6ccccc6c5)ccc5ccc2c3c54)cc1 [EM194],1
10,Cc1cc(C)cc(N(c2ccc(C(C)C)cc2)c2cc3c4ccccc4c(N(c4ccc(C(C)C)cc4)c4cc(C)cc(C)c4)cc3c3ccccc23)c1 [EM215],1
11,Cc1ccc(N(c2ccc(C(C)C)cc2)c2ccc3ccc4c(N(c5ccc(C)cc5)c5ccc(C(C)C)cc5)ccc5ccc2c3c54)cc1 [EM193],0.5
12,Cc1cc(C)cc(N(c2ccc(C(C)C)cc2)c2ccc3ccc4c(N(c5ccc(C(C)C)cc5)c5cc(C)cc(C)c5)ccc5ccc2c3c54)c1 [EM195],0.5
13,Cc1ccc(N(c2ccc(C(C)C)cc2)c2c3ccccc3c(-c3c4ccccc4c(N(c4ccc(C)cc4)c4ccc(C(C)C)cc4)c4cc(C(C)(C)C)ccc34)c3ccc(C(C)(C)C)cc23)cc1 [EM209],0.5
14,c1ccc(-c2cc(N(c3ccc(C4CCCCC4)cc3)c3cc4ccccc4c4ccccc34)c3cc(-c4ccccc4)cc(N(c4ccc(C5CCCCC5)cc4)c4cc5ccccc5c5ccccc45)c3c2)cc1 [EM192],1
15,CC(C)c1ccc(N(c2ccc(C(C)C)cc2)c2cc3c4ccccc4c(N(c4ccc(C(C)C)cc4)c4ccc(C(C)C)cc4)cc3c3ccccc23)cc1 [EM212],1
16,CC(C)c1ccc(N(c2cccc(C(C)(C)C)c2)c2cc3c4ccccc4c(N(c4ccc(C(C)C)cc4)c4cccc(C(C)(C)C)c4)cc3c3ccccc23)cc1 [EM214],1
17,Cc1cc(C)cc(N(c2ccc(C(C)C)cc2)c2c3ccccc3c(-c3c4ccccc4c(N(c4ccc(C(C)C)cc4)c4cc(C)cc(C)c4)c4ccccc34)c3ccccc23)c1 [EM208],1
18,Cc1ccc(N(c2ccc(C(C)C)cc2)c2c3ccccc3c(N(c3ccc(C(C)C)cc3)c3ccc(C(C)C)cc3)c3c2ccc2ccccc23)cc1 [EM211],1
19,CC(C)c1ccc(N(c2ccc(C(C)C)cc2)c2c3ccccc3c(N(c3ccc(C(C)C)cc3)c3ccc(C(C)C)cc3)c3ccccc23)cc1 [EM204],0.5

# Same assay, conditions: Table 4
row,Solubility (%),Compound
1,0.5,Cc1cccc(N(c2cccc(C)c2)c2c3ccccc3c(N(c3cccc(C)c3)c3cccc(C)c3)c3cc(C4CC5CCC4C5)ccc23)c1 (centres unmarked) [EM175]
2,0.5,CC(C)c1ccc(N(c2ccccc2)c2c3ccccc3c(N(c3ccccc3)c3ccc(C(C)C)cc3)c3cc(C45CC6CC(CC(C6)C4)C5)ccc23)cc1 [EM177]
3,<0.1,"c1ccc(N(c2ccccc2)c2c3ccccc3c(N(c3ccccc3)c3ccccc3)c3ccccc23)cc1 [Compound D3, reference compound]"
4,<0.1,"Cc1ccc(N(c2ccc(C)cc2)c2ccc(/C=C/c3ccc(/C=C/c4ccc(N(c5ccc(C)cc5)c5ccc(C)cc5)cc4)cc3)cc2)cc1 [Compound D4, reference compound]"
5,0.5,CCC(C)c1ccc(N(c2ccc(/C=C/c3ccc(/C=C/c4ccc(N(c5ccc(C(C)CC)cc5)c5ccc(C(C)CC)cc5)cc4)cc3)cc2)c2ccc(C(C)CC)cc2)cc1 (centres unmarked) [Compound D1]
6,0.5,Cc1ccc(N(c2ccc(C(C)C)cc2)c2c3ccccc3c(N(c3ccc(C)cc3)c3ccc(C(C)C)cc3)c3cc(C45CC6CC(CC(C6)C4)C5)ccc23)cc1 [EM176]

# Assay: Ink solution condition after a week (pot life)
# Assay type: physicochemical
# Conditions: H10: ink of Example 28 with Compound H10 instead of H4
# Experimental: as §2, §3
row,Compound,precipitation within a week / pot life (in words)
1,c1ccc(-c2ccccc2-c2ccc3c(-c4ccccc4)c4ccccc4c(-c4ccccc4)c3c2)cc1 [Compound H10],precipitation was not observed after a week
